Test results as given in PMC4946153 (Cardiovascular Diabetology, 2016).
Where two headings read alike, the source gives them in different places.

Legend:
[1] = system: adult rat ventricular cardiomyocytes (ARVM); test: Contractility of paced adult rat ventricular cardiomyocytes; type: cell-based; conditions: 100 nM, 5 min pre-treatment, ARVM paced 1 Hz, 15 V, 0.5 ms, 37 °C; vs. control; n = 4
Description: Adult rat ventricular cardiomyocytes (ARVM) were isolated from wild-type Lewis rats (Lew/Crl) as previously described. […] Subsequently, ARVM were cultivated over-night in DMEM/F12 containing 33 µM biotin and 17 µM pantothenate (Invitrogen, Carlsbad, CA, USA). […] Furthermore, untreated ARVM or ARVM treated with 10 nM isoproterenol (Sigma-Aldrich, Munich, Germany) were immediately measured. ARVM were paced with bipolar pulses in a contractility and fluorescence system (IonOptix, Milton, MA, USA) at 15 V, 1 Hz, 0.5 ms, at 37 °C for up to 10 min and 10–14 contractions of at least 10 rod–shaped ARVM per condition were recorded. Sarcomeric shortening, shortening rate and re-lengthening rate were calculated using the IonWizard software (IonOptix, Milton, MA, USA). […] Afterwards, ARVM were treated as described above. […] Microscopic pictures were taken randomly with at least 10 pictures per condition. As a positive control 200 µM H2O2 was utilised. For each condition at least 400 cells were counted per experiment.

[2] = system: Cor.4U human iPSC-derived cardiomyocytes; test: Beating-rate by impedance measurement in human Cor.4U cells; type: cell-based; conditions: 500 nM; for time to maximum beating-rate / beating-rate, area under the curve for 6 h: n = 4; for beating-rate, area under the curve for 6 h: vs. basal
Description: (§1) The cardiac mouse cell line HL-1, a cell line derived from the AT-1 mouse atrial cardiomyocyte tumour lineage, was kindly provided by Dr. W.C. Claycomb (Louisiana State University, New Orleans, LA, USA). HL-1 cells were cultivated in Claycomb medium containing 10 % fetal calf serum (FCS), 100 µM norepinephrine and 4 mM L-glutamine (all from Sigma-Aldrich, Munich, Germany) on gelatine/fibronectin coated plates. H9c2 cells (ATCC CRL-1446), stably transfected with the human IR in our laboratory (H9c2-E2) were cultivated in DMEM, low glucose containing 10 % FCS, 1 % non–essential amino acids and 600 µg/ml G418 (all from Invitrogen, Carlsbad, CA, USA). Commercially available iPS-derived human cardiomyocytes (Cor.4U®) (Axiogenesis, Cologne, Germany) were cultured in Cor.4U® Complete Medium containing 10 % FCS on fibronectin–coated 96-well E-Plate (Acea Biosciences, San Diego, CA, USA). The medium was changed twice daily. All cells were incubated at 37 °C with 5 % CO2 in a humidified incubator.
Cor.4U® cardiomyocytes were seeded at a density of 30,000 cells per well. From day 3 on the cells were cultured in Iscove’s Basal Medium containing 1 % GlutaMAX supplement (both Life Technologies, Carlsbad, CA, USA) and 2 µg/ml Ciprobay (Bayer, Leverkusen, Germany). […] Impedance of each well was measured with the RTCA Cardio xCELLigence Analyser (Acea Biosciences, San Diego, CA, USA) during the whole experiment. Beating-rate and cell index were analysed by RTCA cardio software (Acea Biosciences, San Diego, CA, USA).

HL-1 cells = test: 2-deoxy-D-glucose uptake in HL-1 cardiomyocytes; type: cell-based, mouse; conditions: 200 nM, 60 min
Description: as §1
HL-1 cells were seeded at a density of 400,000 cells per well in a 12-well plate. […] Incorporated glucose was measured by scintillation counting of the cell lysates in a liquid scintillation counter (Beckman Coulter, Pasadena, CA, USA). Values were corrected for non-specific uptake as measured by incubation with L-[^14C]glucose (PerkinElmer, Waltham, MA, USA).

[3] = system: cardiovascular effects in patients; conditions: ORIGIN trial, ref [15]; cited from earlier work
From the text: (§2) So far, finalised clinical data is only available for IGla, whereas for IDeg the investigation is still ongoing.

[4] = system: H9c2-E2 cells (H9c2 overexpressing the human insulin receptor); test: Caspase 3/7 activity assay in H9c2-E2 cells; type: cell-based, rat; conditions: for prevention of H2O2-induced caspase 3/7 activation (in words): 100 nM + 800 µM H2O2, 2 h
Description: as §1
Caspase 3/7 activity was then measured by the caspase-Glo® 3/7 assay system (Promega, Madison, Wisconsin, USA) as described in the manual. After 2 h incubation period caspase 3/7 activity was analysed by measuring the luminescence in an Infinite 200 plate reader (Tecan, Männedorf, Switzerland).

[5] = system: Akt(Thr308) phosphorylation in HL-1 cells; test: Akt(Thr308) phosphorylation in HL-1 cells, Western blot; type: cell-based, mouse; conditions: n = 3
Description: as §1

[6] = system: cardiovascular outcome in patients; conditions: DEVOTE interim analysis; ref [16], [17]; cited from earlier work
From the text: as §2

[7] = system: insulin receptor (membrane embedded, M-IR; CHO-cells overexpressing the IR); test: Competition binding, membrane embedded IR (M-IR)
Description: Briefly, CHO-cells overexpressing the IR were collected and re-suspended in ice-cold 2.25 STM buffer (2.25 M sucrose, 5 mM Tris–HCl pH 7.4, 5 mM MgCl2, complete protease inhibitor) and disrupted using a Dounce homogenizer followed by sonication. The homogenate was overlaid with 0.8 STM buffer (0.8 M sucrose, 5 mM Tris–HCl pH 7.4, 5 mM MgCl2, complete protease inhibitor) and ultra-centrifuged for 90 min at 100,000g. Plasma membranes at the interface were collected and washed twice with phosphate buffered saline (PBS). The final pellet was re-suspended in dilution buffer (50 mM Tric-HCl pH 7.4, 5 mM MgCl2, complete protease inhibitor) and again homogenised with a Dounce homogenizer. Competition binding experiments were performed in a binding buffer (50 mM Tris–HCl, 150 mM NaCl, 0.1 % BSA, complete protease inhibitor, adjusted to pH 7.8) in 96-well microplates. In each well 2 µg isolated membrane were incubated with 0.25 mg wheat germ agglutinin polyvinyltoluene polyethylenimine scintillation proximity assay (SPA) beads. […] The radioactivity was measured at equilibrium in a microplate scintillation counter (Wallac Microbeta, Freiburg, Germany).
(§3) Results are expressed as mean values ± SEM of at least three independent experiments. For statistical analysis Graphpad Prism v5.00 (Graphpad Software, San Diego, CA, USA) was used. One-way ANOVA was performed to determine significance between conditions, with level of significance chosen at p < 0.05. In case of IC50 determinations for binding, a non-parametric Kruskal–Wallis testing was performed, again with level of significance chosen at p < 0.05.

[8] = biological target: insulin receptor (solubilised, S-IR); test: Competition binding, solubilised IR (S-IR)
Description: Binding on a freshly solubilised IR preparation (S-IR) was performed as previously described with some modifications. Aliquots of membranes were incubated at 4 °C for 30 min in a solubilisation buffer (20 mM HEPES–NaOH, 100 mM NaCl, 10 mM MgSO4, 1 % (w/v) n-Dodecyl-ß-D-maltoside (Sigma-Aldrich, Munich, Germany), adjusted to pH 7.8 and Complete TM Protease Inhibitor cocktail). Thereafter, ultra-centrifugation was performed at 100,000g for 30 min and 4 °C to remove non–solubilised debris. Protein concentration in the supernatant was adjusted to 0.15 mg/ml with binding buffer (100 mM HEPES–NaOH, 100 mM NaCl, 10 mM MgSO4, 0.025 % (v/v) Tween-20, adjusted to pH 7.8 and complete TM protease inhibitor cocktail). To streptavidin SPA beads (5 mg in […] binding buffer), 50 µl of an anti-IR alpha-antibody 83-7 (Abcam, Cambridge, UK) was added. After incubation for 30 min, SPA beads were once washed and finally re-suspended in 500 µl binding buffer. A solution of solubilised receptor (1 ml, 0.15 mg/ml) was added and incubated for further 60 min, before washing and resuspension in 1.5 ml.
as §3

[9] = system: Akt(Ser473) phosphorylation in HL-1 cells; test: Akt(Ser473) phosphorylation in HL-1 cells, Western blot; type: cell-based, mouse; conditions: for Akt(Ser473) phosphorylation level: vs. Ins and other analogues
Description: as §1

[10] = 200 nM, 60 min, HL-1, normalised to tubulin, n = 4-5

insulin glargine [IGla]
increase in departure velocity (shortening rate) [1]: ~ twofold | increase in return velocity (re-lengthening rate) [1]: ~ threefold | increase in sarcomeric shortening [1]: ~ 2.5 fold | time to maximum beating-rate [2]: 10 min | beating-rate, area under the curve for 6 h [2]: significant increase | glucose uptake, comparison between insulins (HL-1 cells): no difference | cardiovascular effects vs standard care treatment [3]: non-inferiority | prevention of H2O2-induced caspase 3/7 activation (in words) ([4]; H9c2-E2): same potency to prevent caspase 3/7 activation as Ins

insulin degludec [IDeg]
increase in departure velocity (shortening rate) [1]: ~ twofold | increase in return velocity (re-lengthening rate) [1]: ~ threefold | increase in sarcomeric shortening [1]: ~ 2.5 fold | onset of action on beating-rate [2]: slower onset of action | time to maximum beating-rate [2]: 20 min | beating-rate, area under the curve for 6 h [2]: significant increase | glucose uptake, comparison between insulins (HL-1 cells): no difference | Akt(Thr308) phosphorylation, kinetic ([5]; 200 nM, 5, 10 and 60 min, HL-1, same kinetic as for Akt(Ser473)): The same kinetic was observed | Akt(Thr308) phosphorylation ([5]; 200 nM, 5- and 10-min incubation, HL-1, compared to insulin, insulin glargine and M1): lower | major adverse cardiovascular outcome vs IGla [6]: non-inferiority to IGla | prevention of H2O2-induced caspase 3/7 activation (in words) ([4]; H9c2-E2): same potency to prevent caspase 3/7 activation as Ins | IR affinity (in words) [7]: very low binding affinities | IC50 ([7]; 2 µg isolated membrane, WGA-PVT-PEI SPA beads, 100 pM [125I]-human Ins, pH 7.8, 12 h at 23 °C, mean ± SEM, at least four independent experiments in quadruplicates, read-out: IR affinity IC50): 19.6 ± 1.1 nM | IR affinity (in words) ([7]; listed as Insulin degludec): significant lower IR affinity | IC50 fold higher compared to Ins ([7]; ratio of IC50 vs. Ins): 23.6 fold | binding affinity compared to Ins ([7]; relative to Ins): ~ 4% | IC50 ([8]; anti-IR antibody 83-7 SPA, 100 pM [125I]-insulin, pH 7.8, 12 h at 23 °C, mean ± SEM, at least six times on different days, quadruplicates, read-out: IR affinity IC50): 3.12 ± 0.42 nM | IC50 fold higher compared to Ins ([8]; ratio of IC50 vs. Ins): 5.4 fold | binding affinity relative to human insulin ([8]; this paper): ~ 18.6% | Akt(Ser473) phosphorylation level ([9]; 200 nM, 5 min, HL-1, normalised to tubulin, n = 4-5): significantly lower | Akt(Ser473) phosphorylation level ([9]; 200 nM, 10 min, HL-1, normalised to tubulin, n = 4-5): significantly lower | Akt(Ser473) phosphorylation level compared to IGla [9, 10]: still significantly lower | Akt(Ser473) phosphorylation level compared to Ins and IGlaM1 [9, 10]: similar | Akt(Ser473) phosphorylation ([9]; HL-1, 5- and 10-min incubation, compared to insulin, insulin glargine and M1): lower

insulin
increase in departure velocity (shortening rate) [1]: ~ twofold | increase in return velocity (re-lengthening rate) [1]: ~ threefold | increase in sarcomeric shortening [1]: ~ 2.5 fold | time to maximum beating-rate [2]: 10 min | beating-rate, area under the curve for 6 h [2]: significant increase | decrease of caspase 3/7 activity compared to H2O2 treatment alone ([4]; 100 nM insulin + 800 µM H2O2, 2 h, H9c2-E2, n = 5-6): up to 70.3%

OO [H2O2, reference compound]
induction of caspase 3/7 activity ([4]; 800 µM H2O2, 2 h, H9c2-E2, vs. basal, n = 5-6): 4.8 fold | induction of caspase 3/7 activity (in words) ([4]; H2O2 challenge, H9c2-E2): fivefold increase
